Where two headings read alike, the source gives them in different places.
How the values were obtained:
[1] = tested on: DEN+HFD+CHOL induced NASH model; assay: DEN+HFD+CHOL induced NASH model in rats; type: in vivo, male SD rats
Method: Therapeutic efficacy of FXR compounds was evaluated in DEN+HFD+CHOL induced NASH model in male SD rats. Newborn male rats received DEN injection at Week 2 after birth to generate NASH model. Negative control animals (Group 1, n=10) received no DEN injection. At Week 4, 50 rats that received DEN injections started HFD+CHOL diet (60 kcal % Fat+1.25% Cholesterol+0.5% cholate) for 8 weeks, while negative control animals were still on normal diet. At Week 5, DEN treated rats were randomly assigned into 5 groups (Group 2-6) based on body weight. Disease Group (Group 2, n=10), received no treatment; OCA group (Group 3, n=10) received OCA at 30 mg/kg. Group 4-6 (n=10 each) received Compound 1 at low (3 mg/kg), […], and […]. OCA and Compound 1 were given PO QD, for 7 weeks. On the day after last dose, all animals were euthanized and liver tissues were fixed with formalin for pathological evaluation.

[2] = Mouse pharmacokinetic studies (IV and PO); type: in vivo, Male CD-1 mice
Method: Mouse Pharmacokinetic Studies
Typical PK study procedure. For i.v. PK studies, a group of three fasted Male CD-1 mice were dosed with the compound (2.0 mg/kg, 0.50 mg/mL in 5% solutol in saline, clear solution), and 0.02 mL blood was collected at 0.0830, 0.250, 0.500, 1.00, 2.00, 4.00, 8.00, 24.0 h. For PO PK studies, a group of three fasted Male CD-1 mice were dosed with the compound (10 mg/kg, 1 mg/mL in 5% solutol in saline, clear solution), and 0.02 mL blood was collected at 0.250, 0.500, 1.00, 2.00, 4.00, 6.00, 8.00, 24.0 h. The blood was collected into EP tubes (containing EDTA K20.85-1.15 mg) and centrifuged at 3,000 g or 3,200 g at 4° C. for 10 min) and plasma was isolated and divided into two vials. One was used for bioanalysis and one was kept as backup. The samples were kept at −60° C. or below, until being analyzed by LC MS/MS. The samples were analyzed with AB SCIEX INSTRUMENTS LC-MS/MS AU-Triple Quad 6500 Plus and data were processed with Phoenix WinNonlin 6.3 (IV-noncompartmental model and PO-noncompartmental model).

[3] = tested on: STZ+DEN+HFD induced NASH model; assay: STZ+DEN+HFD induced NASH model in mice; type: in vivo, male C57BL/6 mice
Method: Therapeutic efficacy of FXR compounds was evaluated in STZ+DEN+HFD induced NASH model in male C57BL/6 mice. Briefly, newborn male C57BL/6 mice were injected with streptozocin (STZ) at Week 2 to introduce diabetes and diethylnitrosamine (DEN) at Week 4 to promote liver fibrosis. Mice receiving neither STZ nor DEN were used as negative control (Group 1, n=12) and were fed with normal diet. At Week 6, 60 diabetic mice were selected (blood glucose>12 mmol/L after 6 h of fasting) and were fed with high fat diet (HFD, diet that contains 60 kcal % fat). After one week on HFD, animals were randomly assigned into 5 groups based on body weight: Group 2 (n=12), disease model group, no compound treatment; Group 3 (n=10), positive control group, treated with OCA (30 mg/kg); Group 4 (n=12), treated with Compound 1 (3 mg/kg); Group 5 (n=12), treated with Compound 1 (10 mg/kg); Group 6 (n=12), treated with Compound 1 (30 mg/kg). OCA and Compounds 1 were PO QD, for 7 weeks. On the day after last dose, all animals were euthanized and liver tissues were fixed with formalin for pathological evaluation.

[4] = male, CD-1, plasma, PO 10 mg/kg

PO F ([2]; PO 10 mg/kg vs IV 2.0 mg/kg): 33% | Vd ([2]; male, CD-1, plasma, IV 2.0 mg/kg): 1.75 L/kg | AUC(0-t) ([2]; male, CD-1, plasma, IV 2.0 mg/kg, read-out: IV AUC 0-t): 705 ng·h/mL | clearance ([2]; male, CD-1, plasma, IV 2.0 mg/kg, read-out: IV Cl): 47.4 mL/min/kg | half-life ([2]; male, CD-1, plasma, IV 2.0 mg/kg, read-out: IV T½ (converted)): 51 min | Cmax [2, 4]: 641 ng/mL | Tmax [2, 4]: 49.8 min | AUC(0-t) ([2]; male, CD-1, plasma, PO 10 mg/kg, read-out: PO AUC 0-t): 1160 ng·h/mL
Compound: O=C(O)c1ccc(Oc2ccc3cc(OCc4c(-c5c(Cl)cccc5Cl)noc4C4CC4)ccc3c2)nc1 [Compound 1, 6-((6-((5-cyclopropyl-3-(2,6-dichlorophenyl)isoxazol-4-yl)methoxy)naphthalen-2-yl)oxy)nicotinic acid]
NAS score lowered as compared to the model group ([1]; 30 mg/kg PO QD 7 weeks): 42.9% | lowered cirrhosis percentage ([1]; 30 mg/kg PO QD 7 weeks): 28.0% | NAS score (FIG. 3) ([1]; 3, 10 and 30 mg/kg PO QD 7 weeks, all p<0.001): dose dependent decrease | progress of liver fibrosis (FIG. 4) ([1]; 3, 10 and 30 mg/kg PO QD 7 weeks, p<0.01): significantly inhibited | NAS score ([3]; 30 mg/kg PO QD 7 weeks): significantly decreases | decreased NAS score as compared with the model group ([3]; 30 mg/kg PO QD 7 weeks): 46.2% | lowered cirrhosis percentage ([3]; 30 mg/kg PO QD 7 weeks): 15.2% | hepatocyte steatosis (FIG. 1) ([3]; 3, 10 and 30 mg/kg PO QD 7 weeks, p<0.001): dose dependent decrease | progress of liver fibrosis (FIG. 2) ([3]; low (3 mg/kg) and high doses (30 mg/kg) PO QD 7 weeks): significantly inhibited

From patent US12600716B2 (Gannex Pharma Co., Ltd., priority 2020, dated 2026)
